We go through six compounds from US8569447B2, “Cell-permeable peptide inhibitors of the JNK signal transduction pathway” (Xigen SA, priority 2003, dated 2013).

For one data set, the system named is JNK. The following applies: JBDs of IB1 and IB2; cited from earlier work.
The next data set concerns the target recombinant JNK1α1 (Homo sapiens, UniProt P45983). The data set can be described thus: In vitro kinase assay with recombinant JNK1α1. Type of data set: biochemical. The method, then:
Cellular extracts were prepared by scraping cells in lysis buffer (20 mM Tris-acetate, 1 mM EGTA, 1% Triton X-100, 10 mM p-nitrophenyl-phosphate, 5 mM sodium pyrophosphate, 10 mM β-glycerophosphate, 1 mM dithiothreitol). 25 μg samples were incubated for 1 hour at room temperature with 1 μg GST-c-Jun (amino acid residues 1-89) and 10 μL glutathione-agarose beads (Sigma). The beads were washed four times and then resuspended in the lysis buffer described above. In vitro kinase assays were then performed using recombinant JNK1α1 and 0.5 μg of a substrate selected from the group consisting of GST-fusion proteins (e.g., GST-Jun and GST-Elk1 fusion proteins), casein and histone (Sigma). Reactions were initiated with 10 mM MgCl2 and 10 μM ATP in the presence of 5 μCi ^33P-ATP, and were incubated for 30 minutes at 30° C. The reaction products were separated by SDS-PAGE, and the gels were dried and then exposed to X-ray films (Kodak).
The terms “P-Jun” and “P-Elk1,” as used herein, refer to the radiolabeled (i.e., phosphorylated with ^33P-ATP) forms of GST-Jun and GST-Elk1 substrates, respectively.

A short description of data set [1]: Rotarod test of motor coordination. It is filed as in vivo, mice. Particulars: for motor coordination (rotarod), overall: doses of Table 2: D-JNKI i.p. and icv, MK-801 1 mg/Kg i.p. As for the experimental part: Typically, the high toxicity of other neuroprotective compounds has severely limited their clinical use. (See Gladstone et al., Stroke, 33:2123-36 (2002), incorporated by reference in its entirety). The ability of mice to maintain themselves on horizontal turning rotarod was used as criterion for possible side effects of different doses of D-JNKI and of a therapeutic dose of MK-801 (1 mg/Kg, a standard therapeutic dose). […] (11 and 110 mg/Kg) and icv injections of D-JNKI (2 μl containing 15.7 ng or 157 ng of D-JNKI). The i.p. injection of MK-801 (1 mg/Kg) was used as a control compound during this assessment procedure.
The mice were trained the day before and in the morning of the experimental day, in order to reduce the variability between subjects. Both training and test sessions were identical for control and injected mice. […] The mice were placed on the rotarod, which was programmed to accelerate uniformly from 4 to 40 rpm. The latency to falls for each mouse tested was recorded. The results of this assessment using the rotarod method are presented in Table 2 as median latency to fall (measured in seconds).
(Falling from the rotarod earlier than controls is read as motor impairment.)

Another data set relates to βTC-3 cell cultures. Kind of data set: Cellular import of fluorescein-labeled peptides. Type of data set: cell-based. The following applies: 1 μM, βTC-3 cells. As for the experimental part: The ability of the L- and D-enantiomeric forms of TAT, TAT-IB1 and TAT-IB2 peptides (“TAT-IB peptides”) to enter cells were evaluated.
Labeled peptides (1 μM) were added to βTC-3 cell cultures, which were maintained as described in Example 3. At predetermined times, cells were washed with PBS and fixed for five minutes in ice-cold methanol-acetone (1:1) before being examined under a fluorescence microscope. Fluorescein-labeled BSA (1 μM, 12 moles/mole BSA) was used as a control.

Data set [2] can be described thus: Systolic and diastolic blood pressure after D-JNKI injection. Type of data set: in vivo, mice. The following applies: 10 minutes before until 30 minutes after injection. An excerpt:
Using male ICR-CD1 mice (approximately 6 weeks old and weighing in the range of about 18 to 37 g) (Harlan, Inc.), ischemia was provoked by introducing a filament from the common carotid artery into the internal carotid artery and advancing the filament into the arterial circle, thereby occluding the middle cerebral artery. See, e.g., Huang et al., Science, 265:1883-85 (1994); Hara et al., Proc. Natl. Acad. Sci. (USA) 94:2007-12 (1997); each of which is hereby incorporated by reference in its entirety. Regional cerebral blood flow was measured by laser-Doppler flowmetry with a probe fixed on the skull throughout the ischemia and until 10 minutes after reperfusion. Rectal temperature was measured and maintained at 37° C. The animals were sacrificed 48 hours after reperfusion. Serial cryostat sections […] were traced using a computer-microscope system equipped with the Neurolucida program (Microbrightfield, Inc.), and the volumes of the ischemic area and of the whole brain were calculated (blind) with the Neuroexplorer program. Systolic and diastolic blood pressure were measured with an arterial catheter in three additional mice from 10 minutes before the D-JNKI injection until 30 minutes afterwards. […] The Guidelines of the Swiss Federal Veterinary Office were followed in all experiments.

Non-standard residues stand in square brackets, D forms with d. Residues, ends and D or L forms follow the SMILES beside them.

Sequence of recombinant JNK1α1 (P45983 1-384 isoform P45983-2, species assumed): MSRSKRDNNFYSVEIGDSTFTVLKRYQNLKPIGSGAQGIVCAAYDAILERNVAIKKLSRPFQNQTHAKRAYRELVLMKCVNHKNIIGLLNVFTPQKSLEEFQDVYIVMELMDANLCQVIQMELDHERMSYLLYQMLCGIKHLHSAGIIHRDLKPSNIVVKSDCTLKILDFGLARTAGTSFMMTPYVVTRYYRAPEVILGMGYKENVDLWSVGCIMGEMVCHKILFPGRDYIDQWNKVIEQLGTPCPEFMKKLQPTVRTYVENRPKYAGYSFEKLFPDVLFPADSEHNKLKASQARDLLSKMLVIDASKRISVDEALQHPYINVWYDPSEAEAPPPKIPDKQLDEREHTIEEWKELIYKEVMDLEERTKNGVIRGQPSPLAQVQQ

In the case of “PGTGCGDTYR PKRPTTLNLF PQVPRSQDT (PGTGCGDTYRPKRPTTLNLFPQVPRSQDT) [IB1-long]”, the “efficiency in binding JNK relative to c-Jun or ATF2” value with JNK is “approximately 100 fold”.
For `N=C(N)NCCC[C@H](NC(=O)[C@H](CCCNC(=N)N)NC(=O)[C@H](CCCNC(=N)N)NC(=O)[C@H](CCC(N)=O)NC(=O)[C@H](CCCNC(=N)N)NC(=O)[C@H](CCCNC(=N)N)NC(=O)[C@H](CCCCN)NC(=O)[C@H](CCCCN)NC(=O)[C@H](CCCNC(=N)N)NC(=O)CN)C(=O)O` [L-TAT, reference compound], the “concentration at which the TAT sequence induces nonspecific precipitation of the proteins in the extracts” value on recombinant JNK1α1 was “greater than 50 μM”.
For `C[C@]12N[C@H](Cc3ccccc31)c1ccccc12` [MK-801, reference compound], the “Median Latency to Fall” value in data set [1] (1 mg/Kg i.p., 1 day) is 174 s; in data set [1] (1 mg/Kg i.p., 6 days) it was 233 s; in data set [1] (1 mg/Kg i.p., 12 days), 292 s; in data set [1] (1 mg/Kg i.p., +3 hours), “incapable”; in data set [1] (1 mg/Kg i.p., −1 hour), 226 s. In addition, in data set [1] (10-fold higher dose of MK-801), the lethality result is “killed all the mice”. Besides, in data set [1], the “motor coordination (rotarod), overall” value is given as “dramatic impairment of motor coordination”. In data set [1] (lower dose of MK-801 (1 mg/Kg i.p.)), the “time after which side effects essentially disappear” value was determined as 24 h.
As for “fluorescein labeled bovine serum albumin: fluorescein labeled BSA (12 moles fluorescein/mole BSA) used as a control”, in the data set on βTC-3 cell cultures, the entry into cells entry is reported as “did not enter the cells”.
Consider “IPSPSVEEPH KHRPTTLRLT TLGAQDS (IPSPSVEEPHKHRPTTLRLTTLGAQDS) [IB2-long]”, for which, in the data set with JNK, the “efficiency in binding JNK relative to c-Jun or ATF2” value was “approximately 100 fold”.
For the compound `CC(C)C[C@@H](NC(=O)[C@@H](Cc1ccccc1)NC(=O)[C@H]1CCCN1C(=O)[C@@H](CCC(N)=O)NC(=O)[C@H](NC(=O)[C@H]1CCCN1C(=O)[C@@H](CCCNC(=N)N)NC(=O)[C@@H](CO)NC(=O)[C@@H](CCC(N)=O)NC(=O)[C@@H](CC(=O)O)NC(=O)[C@H](N)[C@H](C)O)C(C)C)C(=O)N[C@H](CC(N)=O)C(=O)N[C@H](CC(C)C)C(=O)N[C@@H](C(=O)N[C@@H](C(=O)N1CCC[C@@H]1C(=O)N[C@H](CCCNC(=N)N)C(=O)N[C@H](CCCCN)C(=O)N1CCC[C@@H]1C(=O)N[C@H](CCCNC(=N)N)C(=O)N1CCC[C@@H]1C(=O)N1CCC[C@@H]1C(=O)N[C@H](CCCNC(=N)N)C(=O)N[C@H](CCCNC(=N)N)C(=O)N[C@H](CCCNC(=N)N)C(=O)N[C@H](CCC(N)=O)C(=O)N[C@H](CCCNC(=N)N)C(=O)N[C@H](CCCNC(=N)N)C(=O)N[C@H](CCCCN)C(=O)N[C@H](CCCCN)C(=O)N[C@H](CCCNC(=N)N)C(=O)NCC(=O)O)[C@H](C)O)[C@H](C)O` [D-JNKI, TDQSRPVQPF LNLTTPRKPR PPRRRQR RKKRG] (H-[dT][dD][dQ][dS][dR][dP][dV][dQ][dP][dF][dL][dN][dL][dT][dT][dP][dR][dK][dP][dR][dP][dP][dR][dR][dR][dQ][dR][dR][dK][dK][dR]G-OH), in data set [2], the “change of blood pressure” value is “less than 10%”. Also, the “Median Latency to Fall” value was 302 s in data set [1] (15.7 ng icv, 1 day); 345 s in data set [1] (15.7 ng icv, 6 days); 285 s in data set [1] (15.7 ng icv, 12 days); 342 s in data set [1] (15.7 ng icv, +3 hours); 210 s in data set [1] (15.7 ng icv, −1 hour); 253 s in data set [1] (157 ng icv, 1 day). Also, the “Median Latency to Fall” value in data set [1] (157 ng icv, 6 days) turned out to be 338 s; in data set [1] (157 ng icv, 12 days), 335 s; in data set [1] (157 ng icv, +3 hours) it was 200 s; in data set [1] (157 ng icv, −1 hour), 260 s; in data set [1] (11 mg/Kg i.p., 1 day) it was 372 s; in data set [1] (11 mg/Kg i.p., 6 days), 287 s. The “Median Latency to Fall” value in data set [1] (11 mg/Kg i.p., 12 days) amounted to 418 s; in data set [1] (11 mg/Kg i.p., +3 hours) it was 221 s; in data set [1] (11 mg/Kg i.p., −1 hour), 204 s; in data set [1] (110 mg/Kg i.p., 1 day) it was 447 s; in data set [1] (110 mg/Kg i.p., 6 days) it was 416 s; in data set [1] (110 mg/Kg i.p., 12 days) it was 325 s. For the same compound, the “Median Latency to Fall” value in data set [1] (110 mg/Kg i.p., +3 hours) turned out to be 266 s; in data set [1] (110 mg/Kg i.p., −1 hour), 276 s. In data set [1] (at 6 and 15 days following treatment), the motor impairment entry is given as “no sign of motor impairment”. Also, the “motor coordination (rotarod), overall” value in data set [1] is recorded as “unimpaired”.
